Test results reported in patent US20090084024A1, “TRAP OR DISPENSER” (EXOSECT LIMITED, priority 2006, published 2009).

Assays:
[1] = Pheromone content of carnauba wax cubes after manufacture and 1 month storage (Soxhlet extraction, Gas Chromatography); type: physicochemical; conditions: 12 mm carnauba wax cubes with 5 mg codlemone
Experimental: Carnauba wax was melted in a pan on a hot plate at 105° C. and was poured into […] mould blocks. Theses were allowed to cool and were weighed, giving an average of 1.4 g per block. From this, it was calculated that 50 mg of codlemone should be added to every 14 g of molten carnauba wax to make ten […] cubes each containing 5 mg. These cubes were made using technical grade 99% pure Codlemone (E,E)-8,10-Dodecadien-1-ol (E8E10-120H) sourced from Bedoukian Research Inc., Danbury, Conn., US and the cubes were then cooled and stored in heat sealed aluminum sachets in a freezer for 1 month. They were then removed from the freezer and the pheromone was extracted from each cube by Soxhlet extraction with ethanol and analyzed by Gas Chromatography.

[2] = Release from two phase 100% carnauba wax lures in Eppendorf tubes (entrainment system, GC/GC-MS, wind tunnel ageing); type: physicochemical; conditions: two-layer carnauba wax; wind tunnel 5 km/h, 27° C.; retested over 20 days; FIG. 1
Experimental: In this experiment Eppendorf tubes were filled with two layers of molten carnauba wax containing different concentrations of Codlemone (E,E)-8,10-Dodecadien-1-ol (E8E10-120H). […] In the lower part of the tube, 0.75 cm^3 of molten carnauba wax containing 5 mg of codlemone and the above compounds was poured in and allowed to solidify. The next step was to add a 0.25 cm^3 cap of molten carnauba wax with 1 mg of codlemone and the above compounds to the top of the solid wax. The concept behind this experiment was that the upper layer would reduce the initial surge of pheromone that is an unwanted characteristic of all known lures when opened for the first time. The hope was that by putting a low dose in the upper layer, the initial surge would be smaller and as the pheromone in this low dose layer disappeared it would be replaced by a steady flow of pheromone permeating through it from the higher concentration layer beneath.
The lures were formulated and immediately frozen and stored in impermeable aluminum sachets until they were placed into an entrainment system comprising a sealed glass sample chamber and an adsorbent tube filled with Porapak Q, obtained from Supelco, Bellefonte, Pa. Semiochemical(s) released over 2-hour intervals were transferred to the adsorbent by use of a vacuum pump, and eluted for GC/GC-MS analysis using dichloromethane. […]

| Compound | lost during manufacturing, storage for 1 month and analysis [1] | initial loading remaining in the cubes ([1]; average, stored in heat sealed aluminum sachets in a freezer for 1 month) | release rate of compounds from the Eppendorf wax lures [2] |
| --- | --- | --- | --- |
| C/C=C/C=C/CCCCCCCO [Codlemone, (E,E)-8,10-Dodecadien-1-ol] | 2.5% | 97.5% |  |
| CCCCCCCCCCCCC [Tridecane (13:HC), Tridecane] |  |  | releases much more quickly than Decyl Acetate (10:Ac) |
